Results reported in patent US10098878B2, “HIF-2α inhibitors for treating iron overload disorders” (The Board of Regents of the University of Texas System, priority 2014, dated 2018).
Like-named read-outs stand apart in the source and are kept apart here.

How the values were obtained:
[1] = system: 786-0 cells; test: VEGF ELISA Assay; format: cell-based; conditions: VEGFA concentration in cell culture medium, read-out: VEGF ELISA EC50
Protocol: Each concentration had duplicated wells. About 20 hours later, medium was removed by suction and each well was supplied with 180 μL of growth medium. About 20 μl freshly-made 10× compound stocks were added to each well. […] The EC50 was calculated by GraphPad Prism using the dose-response-inhibition (four parameter) equation. The cell seeded plate was then subjected to CellTiter-Glo luminescence cell viability assay (Promega) by adding 50 μL of Celltiter Glo reagent into each well and shaking the plate for 8 minutes at 550 rpm (Thermomixer R, Eppendorf) then read luminescence signal in plate reader (3 second delay, 0.5 second/well integration time, Synergy 2 multi Detection Microplate reader) immediately.

[2] = system: 786-O-Hif-Luc cells; test: Luciferase Assay; format: cell-based; conditions: 786-O-Hif-Luc cells, about 24 hours, read-out: Luciferase EC50
Protocol: A pool of infected cells were then selected against 2 μg/mL of puromycin (P8833, Sigma) for 10 days followed by limited dilution to select single clones.
Each concentration was tested in triplicate. After about 24 hours, luciferase activity was determined using ONE-Glo Luciferase Assay Reagent (E6110, Promega) following the manufacturer's recommended procedure. EC50 were calculated by using Dotmatics software.

[3] = molecular target: T1, HIF-2α HIS TAG-PASB Domain (Homo sapiens, UniProt Q99814); test: HIF-2α Scintillation Proximity Assay (SPA); format: binding; conditions: 100 nM HIF-2α HIS TAG-PASB Domain
T1 construct: 100 nM HIF-2α HIS TAG-PASB Domain
T1 sequence (Q99814 240-350 limits assumed): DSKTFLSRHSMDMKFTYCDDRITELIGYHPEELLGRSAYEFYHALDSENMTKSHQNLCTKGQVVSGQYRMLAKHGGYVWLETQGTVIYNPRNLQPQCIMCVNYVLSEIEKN
In short: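 IC50 values rest on percent inhibition, where the sample signal is scaled between high and low controls. Wells contain about 100 μL: compound dispensed as 2 μL of DMSO solution, 88 μL protein-probe mix and 10 μL of beads.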

[4] = Homo sapiens, 786-0, 786-0 cells
[5] = 150 nM Compound 211 probe, read-out: SPA IC50
[6] = SPA IC50, 150 nM Compound 211 probe

SMILES	EC50 [1, 4]	EC50 ([2]; 24 h)	IC50 [3, 5]	EC50 ([1]; 786-0 cells)	EC50 [2]	EC50 ([1]; Homo sapiens, 786-0 cells)	IC50 [3, 6]
N#Cc1cncc(Oc2ccc(C(F)(F)F)c3c2CC(F)(F)[C@H]3O)c1 [Compound 67, 5-[(1S)-2,2-difluoro-1-hydroxy-7-(trifluoromethyl)indan-4-yl]oxypyridine-3-carbonitrile]	64 nM	35 nM	37 nM				
N#Cc1cncc(Oc2ccc(S(=N)(=O)C(F)(F)F)c3c2CC(F)(F)[C@H]3O)c1 (stereo partly drawn) [Compound 78, 5-(((1S)-2,2-difluoro-1-hydroxy-7-(S-(trifluoromethyl)sulfonimidoyl)-2,3-dihydro-1H-inden-4-yl)oxy)nicotinonitrile]	83 nM	148 nM	25 nM				
CS(=O)(=O)c1ccc(Oc2cncc(C#N)c2)c2c1[C@H](O)C(F)(F)C2 [Compound 89, (S)-5-((2,2-Difluoro-1-hydroxy-7-(methylsulfonyl)-2,3-dihydro-1H-inden-4-yl)oxy)nicotinonitrile]	146 nM	488 nM	180 nM				
CS(=O)(=O)c1ccc(Oc2ccc(F)c(C#N)c2)c2c1[C@H](O)C(F)(F)[C@@H]2F [Compound 91, 2-Fluoro-5-(((1S,3R)-2,2,3-trifluoro-1-hydroxy-7-(methylsulfonyl)-2,3-dihydro-1H-inden-4-yl)oxy)benzonitrile]	273 nM	129 nM	28 nM				
CS(=O)(=O)c1ccc(Oc2cncc(Br)c2)c2c1[C@H](O)[C@H](F)[C@@H]2F [Compound 92, (1S,2S,3R)-4-((5-Bromopyridin-3-yl)oxy)-2,3-difluoro-7-(methylsulfonyl)-2,3-dihydro-1H-inden-1-ol]	187 nM	162 nM	32 nM				
CS(=O)(=O)c1ccc(Oc2cncc(C#N)c2)c2c1[C@H](O)[C@H](F)[C@@H]2F [Compound 97, 5-(((1S,2S,3R)-2,3-difluoro-1-hydroxy-7-(methylsulfonyl)-2,3-dihydro-1H-inden-4-yl)oxy)nicotinonitrile]	163 nM	174 nM	74 nM				
N#Cc1cncc(Oc2ccc(S(N)(=O)=O)c3c2[C@@H](F)C(F)(F)[C@H]3O)c1 [Compound 104, (1R,3S)-7-[(5-cyano-3-pyridyl)oxy]-1,2,2-trifluoro-3-hydroxy-indane-4-sulfonamide]	136 nM	125 nM	24 nM				
CS(=O)(=O)c1ccc(Oc2cncc(C#N)c2)c2c1[C@H](O)C(F)(F)[C@@H]2F [Compound 106, 5-(((1S,3R)-2,2,3-trifluoro-1-hydroxy-7-(methylsulfonyl)-2,3-dihydro-1H-inden-4-yl)oxy)nicotinonitrile]	95 nM	88 nM	47 nM				
N#Cc1cc(F)cc(Oc2ccc3c(c2Br)[C@@H](O)C(F)(F)S3(=O)=O)c1 [Compound 111, (R)-3-((4-bromo-2,2-difluoro-3-hydroxy-1,1-dioxido-2,3-dihydrobenzo[b]thiophen-5-yl)oxy)-5-fluorobenzonitrile]			7.2 nM		23 nM	64 nM	
N#Cc1c(Oc2cc(F)cc(Cl)c2)ccc2c1C(O)CS2(=O)=O (stereo not drawn) [Compound 117, 5-(3-chloro-5-fluorophenoxy)-3-hydroxy-2,3-dihydrobenzo[b]thiophene-4-carbonitrile 1,1-dioxide]			61 nM		451 nM	333 nM	
O=S1(=O)c2ccc(Oc3cc(F)cc(Cl)c3)c(C(F)(F)F)c2C(O)C1(F)F (stereo not drawn) [Compound 124, 5-(3-Chloro-5-fluorophenoxy)-2,2-difluoro-3-hydroxy-4-(trifluoromethyl)-2,3-dihydrobenzo[b]thiophene 1,1-dioxide]					75 nM	89 nM	< 5 nM
O=S1(=O)c2ccc(Oc3cc(F)cc(Cl)c3)c(C(F)F)c2C(O)C1(F)F (stereo not drawn) [Compound 128, 5-(3-Chloro-5-fluorophenoxy)-4-(difluoromethyl)-2,2-difluoro-3-hydroxy-2,3-dihydrobenzo[b]thiophene 1,1-dioxide]					17 nM	29 nM	< 5 nM
N#Cc1cc(F)cc(Oc2ccc3c(c2C(F)F)C(N)C(F)(F)S3(=O)=O)c1 (stereo not drawn) [Compound 136, 3-((3-Amino-4-(difluoromethyl)-2,2-difluoro-1,1-dioxido-2,3-dihydrobenzo[b]thiophen-5-yl)oxy)-5-fluorobenzonitrile]			< 5 nM		110 nM	200 nM	

Second part, led by results:

EC50 [1, 4]	EC50 ([2]; 24 h)	IC50 [3, 5]	EC50 ([1]; 786-0 cells)	SMILES	EC50 [2]	EC50 ([1]; Homo sapiens, 786-0 cells)	IC50 [3, 6]
62 nM	22 nM	< 5 nM		CS(=O)(=O)c1ccc(Oc2cc(F)cc(Br)c2)c2c1[C@H](O)C(F)(F)C2 [Compound 68, (S)-4-(3-bromo-5-fluorophenoxy)-2,2-difluoro-7-(methylsulfonyl)-2,3-dihydro-1H-inden-1-ol]			
26 nM	9 nM	< 5 nM		O=S(=O)(c1ccc(Oc2cncc(F)c2)c2c1[C@H](O)C(F)(F)C2)C(F)(F)F [Compound 73, (S)-2,2-difluoro-4-((5-fluoropyridin-3-yl)oxy)-7-((trifluoromethyl)sulfonyl)-2,3-dihydro-1H-inden-1-ol]			
140 nM	113 nM	16 nM		O=S(=O)(c1ccc(Oc2cc(F)c[n+]([O-])c2)c2c1[C@H](O)C(F)(F)C2)C(F)(F)F [Compound 74, (S)-3-((2,2-difluoro-1-hydroxy-7-((trifluoromethyl)sulfonyl)-2,3-dihydro-1H-inden-4-yl)oxonio)-5-fluoropyridine 1-oxide]			
		23 nM	116 nM	N#Cc1cncc(Oc2ccc(S(=N)(=O)C(F)(F)F)c3c2CC(F)(F)[C@H]3O)c1 (stereo partly drawn) [Compound 79, 5-(((1S)-2,2-difluoro-1-hydroxy-7-(S-(trifluoromethyl)sulfonimidoyl)-2,3-dihydro-1H-inden-4-yl)oxy)nicotinonitrile]	106 nM		
47 nM	34 nM	< 5 nM		CS(=O)(=O)c1ccc(Oc2cncc(F)c2)c2c1[C@H](O)C(F)(F)[C@@H]2F [Compound 93, (1S,3R)-2,2,3-trifluoro-4-((5-fluoropyridin-3-yl)oxy)-7-(methylsulfonyl)-2,3-dihydro-1H-inden-1-ol]			
41 nM	41 nM	7.2 nM		CS(=O)(=O)c1ccc(Oc2cncc(Cl)c2)c2c1[C@H](O)C(F)(F)[C@@H]2F [Compound 95, (1S,3R)-4-((5-chloropyridin-3-yl)oxy)-2,2,3-trifluoro-7-(methylsulfonyl)-2,3-dihydro-1H-inden-1-ol]			
160 nM	114 nM	18 nM		NS(=O)(=O)c1ccc(Oc2cncc(F)c2)c2c1[C@H](O)C(F)(F)[C@@H]2F [Compound 105, (1R,3S)-1,2,2-trifluoro-7-[(5-fluoro-3-pyridyl)oxy]-3-hydroxy-indane-4-sulfonamide]			
123 nM	42 nM	6.7 nM		N#Cc1cncc(Oc2ccc(S(=O)(=O)CF)c3c2[C@@H](F)C(F)(F)[C@H]3O)c1 [Compound 108, 5-(((1S,3R)-2,2,3-trifluoro-7-((fluoromethyl)sulfonyl)-1-hydroxy-2,3-dihydro-1H-inden-4-yl)oxy)nicotinonitrile]			
87 nM	68 nM	< 5 nM		NC1c2c(ccc(Oc3cc(F)cc(F)c3)c2C(F)F)S(=O)(=O)C1(F)F (stereo not drawn) [Compound 129, 3-Amino-4-(difluoromethyl)-5-(3,5-difluorophenoxy)-2,2-difluoro-2,3-dihydrobenzo[b]thiophene 1,1-dioxide]			
